Results published in patent US8058242B2, “Chimeric proteins with natriuretic activity” (The University of Queensland, priority 2004, dated 2011).
Positions of bridges follow the written chain, without caps; N, C: chain ends. Residues, ends and D or L forms follow the SMILES beside them.

Assays:
[1] = target: T1, NPR-A signaling in HeLa cells (Homo sapiens, UniProt P16066); experiment: cGMP AlphaScreen assay in HeLa cells (Examples 14, 15); format: cell-based; conditions: 30 minutes at 37° C.
T1 construct: Cyclic GMP (cGMP) elevation in HeLa cells in response to Natriuretic Peptide stimulation; endogenous in cells; host or cells: HeLa cells
T1 sequence (P16066 33-1061): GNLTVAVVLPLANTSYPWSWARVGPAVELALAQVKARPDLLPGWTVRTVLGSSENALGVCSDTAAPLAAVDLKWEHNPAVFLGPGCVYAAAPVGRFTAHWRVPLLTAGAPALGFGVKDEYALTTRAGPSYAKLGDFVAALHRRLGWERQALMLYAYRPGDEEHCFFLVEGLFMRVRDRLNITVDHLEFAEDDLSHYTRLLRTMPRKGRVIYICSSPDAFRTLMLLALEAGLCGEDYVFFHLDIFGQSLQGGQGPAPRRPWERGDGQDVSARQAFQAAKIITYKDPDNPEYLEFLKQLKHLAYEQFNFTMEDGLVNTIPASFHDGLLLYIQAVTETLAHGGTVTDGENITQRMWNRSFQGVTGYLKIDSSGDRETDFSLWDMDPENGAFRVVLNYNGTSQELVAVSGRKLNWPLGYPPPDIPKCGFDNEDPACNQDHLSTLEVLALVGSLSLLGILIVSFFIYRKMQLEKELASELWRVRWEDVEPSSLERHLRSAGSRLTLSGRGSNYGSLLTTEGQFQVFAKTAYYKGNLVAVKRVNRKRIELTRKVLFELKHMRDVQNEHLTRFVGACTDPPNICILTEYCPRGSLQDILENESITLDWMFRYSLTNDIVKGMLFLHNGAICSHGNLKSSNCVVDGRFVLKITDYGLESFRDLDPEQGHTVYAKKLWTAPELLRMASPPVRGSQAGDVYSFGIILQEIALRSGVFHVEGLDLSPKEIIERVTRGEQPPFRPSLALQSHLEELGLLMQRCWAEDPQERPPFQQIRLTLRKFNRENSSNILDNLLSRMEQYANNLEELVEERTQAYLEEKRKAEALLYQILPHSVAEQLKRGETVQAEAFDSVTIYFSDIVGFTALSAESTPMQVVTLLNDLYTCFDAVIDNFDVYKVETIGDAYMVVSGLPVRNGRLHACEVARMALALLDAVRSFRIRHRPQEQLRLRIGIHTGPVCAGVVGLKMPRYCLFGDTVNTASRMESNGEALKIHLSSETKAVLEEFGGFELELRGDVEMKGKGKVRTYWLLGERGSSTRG
Description: HeLa cells were maintained in RPMI cell culture medium (Gihco Invitrogen, Mt Waverley, Australia) supplemented with 10% Foetal Bovine Serum (Cambrex Bio Science, Rockland, USA). Upon reaching confluence, cells were sub-cultured such that they would be 70-90% confluent at time of assay.
Cyclic GMP (cGMP) elevation in HeLa cells in response to Natriuretic Peptide stimulation was performed using a cGMP AlphaScreen kit (PerkinElmer, Boston, USA), as follows for normal experiments: Cells were detached, pelleted to remove growth medium, and resuspended in Stimulation Buffer (Hank's Balanced Salt Solution, 0.1% Bovine Serum Albumin [BSA] (Sigma-Aldrich, Castle Hill, Australia), 1 mM 3-Isobutyl-1-methylxanthine [IBMX] (Sigma-Aldrich, Castle Hill, Australia)) and diluted to 6×10^6 cells per mL (30 000 cells per 5 μL). 5 μL of cells were added to wells of white 384-well OptiPlates (PerkinElmer, Boston, USA), and stimulated with increasing concentrations of peptide for 30 minutes at 37° C. Cells were then lysed with 10 μL Lysis buffer (dH2O, 0.3% Tween-20 (Sigma-Aldrich, Castle Hill, Australia), 5 mM HEPES (JRH Biosciences, Kansas, USA) and 0.1% BSA) and 5 μL acceptor bead mix (10 μL per mL acceptor beads and 1/3000 anti-cGMP antibody (BioVision, Mountain View, USA) in lysis buffer) added per well in the dark. Plates were incubated in the dark at room temperature for 30 minutes, then 5 μL donor bead mix (10 μL per ML donor beads and 0.3 nM biotinylated cGMP in lysis buffer) was added per well in the dark and the plate incubated overnight at room temperature. Signal was read using an EnVision plate reader (PerkinElmer, Boston, USA) and data analysed using Prism software. The cGMP standard curve was performed as per manufacturer's instructions.
To examine whether TNPc and synthetic analogs produced in the inventors' laboratory could stimulate NPR-A signaling, cGMP elevations in HeLa cells in response to these peptides were measured, as described above.

[2] = target: Endopeptidase (NEP) (EC 3.4.24.11) (Homo sapiens, UniProt P08473); experiment: Stability to enzymatic degradation by NEP (Examples 7, 16); format: in vitro ADME; conditions: over the 360 min measurement period
Description: (§1) The incubation buffer contained 100 mM Tris/HCl and 150 mM NaCl and the pH was adjusted to 7.2-7.4. In each assay, 100 μl of peptide [500 μM] was incubated with 300 μl buffer (with 500 ng Endopeptidase (NEP) or 10 μg Plasmin) at 37° C. 50 μl aliquots were taken at times 5 min, 30 min, 60 min, 90 min, 180 min and 24 h. The reaction was quenched by heating to 100° C. for 4 min and the remaining peptide concentrations measured by RP-HPLC. Note that the levels of Plasmin required to degrade these peptides was several thousands time the levels present in human plasma.
(§2) The stability of TDT and was investigated using the same enzymatic degradation assays (NEP, plasmin, pepsin) disclosed in Example 7. […] It is also evident that the increased NEP stability cannot be explained by the length of the tail region alone as the NEP cleavage site residues at the N-terminal end of the loop region.

Plasmin = target: T2, Plasmin (Homo sapiens, UniProt P00747); experiment: Stability to enzymatic degradation by plasmin (Examples 7, 16); format: in vitro ADME
T2 construct: with 500 ng Endopeptidase (NEP) or 10 μg Plasmin
Description: as §1, §2

pepsin = experiment: Stability to enzymatic degradation by pepsin (Example 16); format: in vitro ADME
Text: as §2

Chain of Endopeptidase (NEP) (EC 3.4.24.11) (P08473 whole entry): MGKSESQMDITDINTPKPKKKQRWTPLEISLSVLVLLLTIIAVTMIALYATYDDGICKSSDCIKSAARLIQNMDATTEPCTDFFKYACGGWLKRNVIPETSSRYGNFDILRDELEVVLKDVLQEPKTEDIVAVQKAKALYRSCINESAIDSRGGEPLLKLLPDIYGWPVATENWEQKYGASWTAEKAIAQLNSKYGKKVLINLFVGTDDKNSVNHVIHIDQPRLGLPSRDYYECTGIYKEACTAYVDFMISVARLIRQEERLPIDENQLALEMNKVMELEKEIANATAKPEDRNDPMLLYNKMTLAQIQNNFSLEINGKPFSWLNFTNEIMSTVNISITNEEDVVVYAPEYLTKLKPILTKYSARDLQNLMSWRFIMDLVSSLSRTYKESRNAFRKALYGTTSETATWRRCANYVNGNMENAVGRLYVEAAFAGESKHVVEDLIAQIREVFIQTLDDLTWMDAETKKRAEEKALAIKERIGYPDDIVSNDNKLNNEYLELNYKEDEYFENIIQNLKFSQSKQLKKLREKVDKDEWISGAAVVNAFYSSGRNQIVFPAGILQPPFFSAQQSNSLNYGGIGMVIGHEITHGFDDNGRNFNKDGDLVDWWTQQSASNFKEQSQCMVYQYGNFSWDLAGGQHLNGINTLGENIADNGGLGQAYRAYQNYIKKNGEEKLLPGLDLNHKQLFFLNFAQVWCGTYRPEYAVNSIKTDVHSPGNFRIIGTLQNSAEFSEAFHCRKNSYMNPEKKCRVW
T2 sequence (P00747 97-580 partner limits assumed, species assumed): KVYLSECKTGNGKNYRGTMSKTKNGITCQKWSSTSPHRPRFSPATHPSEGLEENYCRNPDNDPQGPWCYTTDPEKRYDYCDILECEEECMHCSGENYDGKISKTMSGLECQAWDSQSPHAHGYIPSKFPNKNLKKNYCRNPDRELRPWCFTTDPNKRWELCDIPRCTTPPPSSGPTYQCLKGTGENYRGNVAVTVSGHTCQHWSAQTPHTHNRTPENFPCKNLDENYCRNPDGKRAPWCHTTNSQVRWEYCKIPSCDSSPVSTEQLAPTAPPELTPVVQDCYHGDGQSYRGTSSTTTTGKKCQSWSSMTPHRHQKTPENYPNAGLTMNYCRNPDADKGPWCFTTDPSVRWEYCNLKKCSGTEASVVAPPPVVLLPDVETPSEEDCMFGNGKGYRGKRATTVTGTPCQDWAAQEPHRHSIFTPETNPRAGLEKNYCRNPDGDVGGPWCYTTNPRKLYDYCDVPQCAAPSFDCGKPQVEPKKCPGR
T2 sequence (P00747 581-810 limits assumed, species assumed): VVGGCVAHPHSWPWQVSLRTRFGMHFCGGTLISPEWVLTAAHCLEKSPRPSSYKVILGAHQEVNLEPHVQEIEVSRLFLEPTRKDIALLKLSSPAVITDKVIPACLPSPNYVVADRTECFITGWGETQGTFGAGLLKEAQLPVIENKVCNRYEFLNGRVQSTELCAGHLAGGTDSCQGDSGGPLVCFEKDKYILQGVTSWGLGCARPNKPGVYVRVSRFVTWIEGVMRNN

Q: For `CC[C@H](C)[C@H](NC(=O)[C@H](CCCCN)NC(=O)[C@H](CO)NC(=O)[C@H](CC(=O)O)NC(=O)[C@@H](N)CO)C(=O)NCC(=O)N[C@@H](CC(N)=O)C(=O)NCC(=O)N[C@H]1CSSC[C@@H](C(=O)N[C@@H](CC(N)=O)C(=O)N[C@@H](CCCNC(=N)N)C(=O)N[C@H](C(=O)N[C@@H](CCSC)C(=O)N[C@@H](CCC(N)=O)C(=O)N[C@@H](CC(N)=O)C(=O)N2CCC[C@H]2C(=O)N2CCC[C@H]2C(=O)N[C@@H](CCCCN)C(=O)N[C@@H](CCCCN)C(=O)N[C@@H](Cc2ccccc2)C(=O)N[C@@H](CO)C(=O)NCC(=O)N[C@@H](CCC(=O)O)C(=O)O)[C@@H](C)CC)NC(=O)CNC(=O)[C@H](CC(C)C)NC(=O)[C@H](CC(N)=O)NC(=O)[C@H](CO)NC(=O)[C@H](C(C)C)NC(=O)[C@H](Cc2c[nH]cn2)NC(=O)[C@H](CC(N)=O)NC(=O)[C@H]([C@@H](C)CC)NC(=O)[C@H](CCCNC(=N)N)NC(=O)[C@H](CC(=O)O)NC(=O)[C@H]([C@@H](C)CC)NC(=O)[C@H](CCCCN)NC(=O)[C@H](Cc2c[nH]cn2)NC(=O)CNC(=O)[C@H](Cc2ccccc2)NC1=O` [TDT] (H-SDSKIGNGCFGHKIDRINHVSNLGCNRIMQNPPKKFSGE-OH; disulfide 9-25), which EC50 ([1]; EC50, cGMP accumulation in HeLa cells) is on record?
A: The EC50 was 70.4 nM.

Q: What about the EC50 ([1]; −Log10EC50 (pEC50) ± Standard Error, cGMP accumulation in HeLa cells) of the same compound?
A: The EC50 was 61.9 nM.

Q: And the “degradation by NEP” value [2]?
A: The value was “minimal degradation”.

Q: What about the “stability against plasmin compared with ANP” value (Plasmin) of the same compound?
A: Its value is “more stable than ANP”.

Q: What about the “stability against pepsin compared with ANP” value (pepsin) of the same compound?
A: The value was “more stable than ANP”.
